From ChEMBL document CHEMBL1136086, “6-Alkyl, alkoxy, or alkylthio-substituted 3-(4-methanesulfonylphenyl)-4-phenylpyran-2-ones: a novel class of diarylheterocyclic selective cyclooxygenase-2 inhibitors” (Bioorg Med Chem Lett, 2003)

Legend:
[1] = biological target: T1, Prostaglandin G/H synthase 1 (Ovis aries, UniProt P05979)
T1 sequence (P05979 whole entry): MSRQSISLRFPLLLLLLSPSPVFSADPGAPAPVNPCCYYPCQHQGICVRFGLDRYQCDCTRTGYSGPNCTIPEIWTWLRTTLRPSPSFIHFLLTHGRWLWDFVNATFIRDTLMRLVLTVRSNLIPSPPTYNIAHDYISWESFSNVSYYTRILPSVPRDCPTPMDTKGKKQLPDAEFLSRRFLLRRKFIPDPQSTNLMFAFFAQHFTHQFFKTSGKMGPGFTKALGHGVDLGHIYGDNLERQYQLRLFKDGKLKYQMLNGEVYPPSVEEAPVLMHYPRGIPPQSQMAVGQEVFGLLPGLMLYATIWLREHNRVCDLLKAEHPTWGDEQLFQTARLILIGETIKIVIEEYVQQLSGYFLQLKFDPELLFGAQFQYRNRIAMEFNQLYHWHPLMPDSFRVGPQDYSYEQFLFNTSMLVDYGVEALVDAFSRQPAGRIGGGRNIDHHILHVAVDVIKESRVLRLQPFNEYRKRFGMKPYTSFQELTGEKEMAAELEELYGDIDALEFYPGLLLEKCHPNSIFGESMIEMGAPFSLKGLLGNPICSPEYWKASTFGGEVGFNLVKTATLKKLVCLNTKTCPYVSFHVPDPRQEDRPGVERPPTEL
Description: In vitro inhibition against ovine Prostaglandin G/H synthase 1

[2] = biological target: T2, Prostaglandin G/H synthase 1 (Ovis aries) (UniProt P05979); assay: In vitro selectivity ratio of Prostaglandin G/H synthase 1 to Prostaglandin G/H synthase 2
T2 sequence (whole entry): T1 sequence (P05979 whole entry)

Compound | IC50 [1] | Ratio [2]
CC(C)c1cc(-c2ccccc2)c(-c2ccc(S(C)(=O)=O)cc2)c(=O)o1 | 341 µM | –
CCc1cc(-c2ccccc2)c(-c2ccc(S(C)(=O)=O)cc2)c(=O)o1 | 8 µM | –
CC(C)Sc1cc(-c2ccccc2)c(-c2ccc(S(C)(=O)=O)cc2)c(=O)o1 | > 100 µM | –
CC(C)Oc1cc(-c2ccccc2)c(-c2ccc(S(C)(=O)=O)cc2)c(=O)o1 | 4 µM | 2
CCSc1cc(-c2ccccc2)c(-c2ccc(S(C)(=O)=O)cc2)c(=O)o1 | 386 µM | –
CCOc1cc(-c2ccccc2)c(-c2ccc(S(C)(=O)=O)cc2)c(=O)o1 | 281 µM | –
Cc1cc(-c2ccccc2)c(-c2ccc(S(C)(=O)=O)cc2)c(=O)o1 | 615 µM | –
CSc1cc(-c2ccccc2)c(-c2ccc(S(C)(=O)=O)cc2)c(=O)o1 | > 100 µM | 35.7
COc1cc(-c2ccccc2)c(-c2ccc(S(C)(=O)=O)cc2)c(=O)o1 | 14.7 µM | < 0.52
